One data set addresses T1, human cathepsin B (Homo sapiens, UniProt P07858).
T1 construct: purchased Calbiochem
Nature of the data set: Cathepsin B inhibition assay with chromogenic substrate Cbz-Arg-Arg-pNA. The class given is biochemical. Conditions: kinetic activity assay; for Ki: read-out: Ki Cat B. An excerpt: (§1) Enzymatic activity was monitored either fluorometrically with peptide–AMC substrates, which release 7-amino-4-methylcoumarin (AMC) as a fluorescent product, or spectrophotometrically with peptide–pNA substrates, which liberate p-nitroaniline (pNA). Reaction rates were obtained from the slopes of the linear progress curves and expressed as relative fluorescence units per second (RFU s^−1) or as absorbance units per second (AU s^−1). […] The standard errors of measurements refer to the non-linear regression analysis.
(§2) Enzymatic Assay Materials
(§3) Human cathepsin B was purchased from Calbiochem, and human cathepsins K, L, and S from Enzo. […]
(§4) Stock solutions of the […]
inhibitors and substrates were prepared in DMSO.
Cathepsin B Inhibition Assay
Kinetic measurements were performed in duplicate in cuvettes (1 mL assay volume) at 37 °C, as described.18-20 Human cathepsin B was activated by a 1:500 dilution with assay buffer (100 mM sodium phosphate, pH 6.0, 100 mM NaCl, 5 mM EDTA, 0.01% Brij 35) containing 5 mM DTT and then incubated at 37 °C for 30 min.
Into a cuvette containing 960 µL assay buffer, 5 µL of the chromogenic substrate Cbz-Arg-Arg-pNA, DMSO and inhibitor solution (15 µL) were pipetted. After addition of cathepsin B (20 µL), substrate hydrolysis was measured spectrophotometrically in a VARIAN/Bio-50/100 photometer at 405 nm for 20 min. […]

Data set [1] deals with SmCB1 (Schistosoma mansoni, UniProt Q8MNY2, T185A/T300A). Nature of the data set: biochemical. To be noted: for Ki SmCB1: kinetic activity assay, triplicate, pH 5.5, 37 °C.
Excerpt: as §1
(§5) A non-glycosylated mutant of the SmCB1 zymogen was expressed in the yeast Pichia pastoris, activated by S. mansoni legumain and purified as described previously.[25,43,58] Kinetic measurements were performed in triplicate in 96-well microplates (100 μL assay volume) at 37 °C. […] Substrate hydrolysis was measured fluorometrically in an Infinite M1000 microplate reader (Tecan) at excitation and emission wavelengths of 360 and 465 nm, respectively. Inhibition assays for human cathepsins and cruzain are described in Supplemental Experimental Procedures.

Data set [2] relates to newly transformed schistosomula (NTS) of S. mansoni. Nature of the data set: Phenotypic assay with newly transformed schistosomula (NTS). It is filed as cell-based, Schistosoma mansoni. To be noted: for Severity score: scale 0 (no effect) to 4 (most severe); for anti-schistosomal effect against NTS (in words): 1 and 10 μM, three days. As to the method:
Newly transformed schistosomula (NTS) of S. mansoni were prepared by mechanically transforming infective larvae (cercariae) as described previously.[47,57] NTS (200–300 parasites) were incubated in flat-bottomed 96-well plates in 200 μL of Basch medium 169[60] containing 5% FBS (ThermoFisher Scientific), 100 U mL^−1 penicillin and 100 μg mL^−1 streptomycin (ThermoFisher Scientific), at 5% CO2 and 37 °C.[61,62] Inhibitors were added at final concentration of 1 or 10 μM,[43,47] and changes in phenotype were observed every 24 h for up to 72 h. A constrained nomenclature of ‘descriptors’[49,57] is used to record the multiple and dynamic changes in movement, shape and translucence that the schistosome parasite is capable of (Fig. S1). These descriptors are then converted into an ordinal ‘severity score’ system from 0 (no effect) to 4 (maximum effect), which allows for the relative comparison of compound effects, as described previously.[63]

On the set-up of data set [3]: method as in doi:10.1135/cccc20011375. Conditions: cited from earlier work.
The target of the next data set is T2, human cathepsin K (Homo sapiens, UniProt P43235).
T2 construct: purchased Enzo
T2 sequence (P43235 115-329): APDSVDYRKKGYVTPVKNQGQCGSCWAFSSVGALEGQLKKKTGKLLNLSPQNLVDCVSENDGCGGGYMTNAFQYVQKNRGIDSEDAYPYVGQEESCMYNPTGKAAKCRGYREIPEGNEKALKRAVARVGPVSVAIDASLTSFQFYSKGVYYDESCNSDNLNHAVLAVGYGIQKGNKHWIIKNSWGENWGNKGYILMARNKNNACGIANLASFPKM
Nature of the data set: Cathepsin K inhibition assay. It is filed as biochemical. Conditions: duplicate measurements; read-out: Ki cat K.
Excerpt: as §1, §2, §3, §4
inhibitors and substrates were prepared in DMSO. […]
Cathepsin K Inhibition Assay
Kinetic measurements were performed in duplicate in 96-well microplates (100 µL assay volume) at 25 °C, as described.18-20 Human recombinant cathepsin K was activated by a 1:100 dilution with assay buffer (100 mM sodium citrate, pH 5.0, 100 mM NaCl, 1 mM EDTA, 0.01% CHAPS) containing 5 mM DTT, and then incubated at 37 °C for 30 min. […] After addition of cathepsin K (2 µL), substrate hydrolysis was measured for 20 min fluorometrically in a FLUOSTAR Optima plate reader at excitation and emission wavelengths of 360 and 440 nm, respectively. […]

The next data set addresses T3, cruzain (Trypanosoma cruzi, UniProt P25779).
T3 construct: Recombinant cruzain, consisting of the catalytic domain without the C-terminal extension; made in house
Nature of the data set: Cruzain inhibition assay. It is filed as biochemical. To be noted: duplicate measurements.
Excerpt: as §1
Enzymatic Assay Materials […]
Recombinant cruzain, consisting of the catalytic domain without the C-terminal extension, was expressed and purified as described previously.16,17 All substrates were purchased from Bachem. Stock solutions of the inhibitors and substrates were prepared in DMSO. […]
Kinetic measurements were performed in duplicate with a fluorometric assay (Biotek SynergyTM HT) using Corning 96-well black microplates (200 µL assay volume) at 25 °C. Recombinant cruzain was incubated in 100 mM sodium acetate, pH 5.5, 5 mM DTT, 0.01 % Triton X-100 for 20 min, followed by an additional 2 min incubation with inhibitors before the reaction was started by the addition of the fluorogenic substrate Cbz-Phe-Arg-AMC. Substrate hydrolysis was measured for 5 min fluorometrically at excitation and emission wavelengths of 360 and 460 nm, respectively. […]

The next data set deals with T4, human cathepsin S (Homo sapiens, UniProt P25774).
T4 construct: purchased Enzo
Nature of the data set: Cathepsin S inhibition assay. The class given is biochemical. Conditions: duplicate measurements; read-out: Ki cat S. The method, then:
Cathepsin S Inhibition Assay
Kinetic measurements were performed in duplicate in 96-well microplates (100 µL assay volume) at 25 °C, as described.18-20 Human recombinant cathepsin S was activated by 1:100 dilution with assay buffer (100 mM sodium citrate, pH 6.0 containing 50 mM NaCl, 2 mM EDTA, 0.01% Triton X-100) containing 5 mM DTT, and then incubated at 37 °C for 60 min. Into a well containing 184 µL assay buffer, 0.8 µL of the fluorogenic substrate Cbz-Phe-Arg-AMC, DMSO and inhibitor solution (3.2 µL) were pipetted. After addition of cathepsin S (12 µL), substrate hydrolysis was measured for 20 min fluorometrically on a FLUOSTAR Optima plate reader at excitation and emission wavelengths of 360 and 440 nm, respectively. The final concentrations of Cbz-Phe-Arg-AMC, cathepsin S and DMSO were 40 µM (= 0.74 × Km), 42 ng mL-1 and 2%, respectively. […]

A further data set deals with T5, human cathepsin L (Homo sapiens, UniProt P07711).
T5 construct: Human isolated cathepsin L; purchased Enzo
Nature of the data set: Cathepsin L inhibition assay. The class given is biochemical. To be noted: duplicate measurements; read-out: Ki cat L. As to the method: Cathepsin L Inhibition Assay
Kinetic measurements were performed in duplicate in cuvettes (1 mL assay volume) at 37 °C, as described.18-20 Human isolated cathepsin L was activated by a 1:100 dilution with assay buffer (100 mM sodium phosphate buffer, pH 6.0, 100 mM NaCl, 5 mM EDTA, 0.01% Brij 35) containing 5 mM DTT, and then incubated at 37 °C for 30 min. Into a cuvette containing 940 µL assay buffer, 10 µL of the chromogenic substrate Cbz-Phe-Arg-pNA, DMSO and inhibitor solution (10 µL) were pipetted. After the addition of cathepsin L (40 µL), substrate hydrolysis was measured for 20 min spectrophotometrically in a VARIAN/Bio-50/100 photometer at 405 nm. […]
Arg-AMC, cathepsin S and DMSO were 40 µM (= 0.74 × Km), 42 ng mL-1 and 2%, respectively. […]

For data set [4], the system named is SmCB1. Nature of the data set: biochemical. Conditions: ratio of Ki values.
Excerpt: as §1, §5

Broadly, the Ki is a dissociation constant, usually derived from enzyme kinetics or from competition with a known ligand.

T5 sequence (P07711 114-333): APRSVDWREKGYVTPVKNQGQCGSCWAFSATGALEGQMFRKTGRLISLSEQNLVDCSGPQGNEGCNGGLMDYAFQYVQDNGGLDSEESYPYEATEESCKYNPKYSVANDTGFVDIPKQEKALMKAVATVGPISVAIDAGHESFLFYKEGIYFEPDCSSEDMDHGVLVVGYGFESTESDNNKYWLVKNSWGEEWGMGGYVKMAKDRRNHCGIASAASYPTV
T3 sequence (P25779 123-337 limits assumed): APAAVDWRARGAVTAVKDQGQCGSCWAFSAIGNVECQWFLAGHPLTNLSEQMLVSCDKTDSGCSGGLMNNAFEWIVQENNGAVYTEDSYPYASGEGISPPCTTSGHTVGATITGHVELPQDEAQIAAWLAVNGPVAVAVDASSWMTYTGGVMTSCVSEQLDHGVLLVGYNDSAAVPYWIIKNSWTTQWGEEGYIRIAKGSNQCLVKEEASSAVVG
T4 sequence (P25774 115-331): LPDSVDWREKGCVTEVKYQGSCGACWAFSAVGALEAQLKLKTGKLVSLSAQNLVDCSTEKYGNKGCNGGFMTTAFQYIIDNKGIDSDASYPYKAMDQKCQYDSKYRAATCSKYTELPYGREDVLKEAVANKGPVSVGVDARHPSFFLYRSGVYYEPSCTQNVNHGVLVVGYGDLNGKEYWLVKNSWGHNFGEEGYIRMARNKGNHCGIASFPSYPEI

On to 9-SH-closo-1,2-C2B10H11 [compound 2], for which the “Ki Cat B” value on human cathepsin B is listed as “weak inhibition”. Besides, the inhibitory constant (Ki) on human cathepsin B amounted to 43.8 ± 5.6 µM. Moreover, on SmCB1 [1], the “Ki SmCB1” value is “inactive”. The Severity score in data set [2] (1 μM, 24 h) is listed as 0; in data set [2] (1 μM, 48 h), 0; in data set [2] (1 μM, 72 h), 0; in data set [2] (10 μM, 24 h), 0; in data set [2] (10 μM, 48 h), 0; in data set [2] (10 μM, 72 h) it was 0. Further, the “anti-schistosomal effect against NTS (in words)” value (from here on “anti-schistosomal effect”) in [2] was “ineffective”.
As to 9-phenyl ortho-carborane, the dipole moment in data set [3] is given as 5.0 D.
For `N#CC1(NC(=O)[C@H](Cc2cccc(Cl)c2)NC(=O)CSc2ccccc2)CC1` [5a], the Ki on human cathepsin B was found to be 6.8 ± 0.5 µM; at human cathepsin K, 1.41 ± 0.26 µM; on cruzain, 0.46 ± 0.01 µM; on human cathepsin S, 0.21 ± 0.03 µM; at human cathepsin L it was 0.37 ± 0.02 µM; on SmCB1 [1] it was 14.3 ± 2.4 µM. The “Selectivity Ki (cat B)/Ki (SmCB1)” value in the data set on SmCB1 [4] worked out at 0.5. Further, the Severity score in data set [2] (1 μM, 24 h) was found to be 0; in data set [2] (1 μM, 48 h) it was 0; in data set [2] (1 μM, 72 h), 0; in [2] (10 μM, 24 h), 0; in [2] (10 μM, 48 h), 0; in data set [2] (10 μM, 72 h), 0. For the same molecule, the “anti-schistosomal effect” value in data set [2] is given as “ineffective”.
Turning to `CC(C)(C)OC(=O)N[C@@H](Cc1cccc(Cl)c1)C(=O)NC1(C#N)CC1` [compound 4], the Ki turned out to be 15.5 ± 1.7 µM on human cathepsin B; 1.85 ± 0.23 µM on human cathepsin K; 0.75 ± 0.02 µM at cruzain; 0.096 ± 0.009 µM at human cathepsin S; 0.25 ± 0.02 µM at human cathepsin L; 27.1 ± 3.2 µM on SmCB1 [1]. The Severity score in data set [2] (1 μM, 24 h) was 0; in [2] (1 μM, 48 h), 0; in [2] (1 μM, 72 h), 0; in [2] (10 μM, 24 h), 0; in [2] (10 μM, 48 h) it was 0; in data set [2] (10 μM, 72 h), 0. The “anti-schistosomal effect” value in [2] was “ineffective”.
As for “closo-1,2-C2B10H12 [compound 1, reference compound]”, in data set [3], the dipole moment is on record as 4.5 D. In addition, the “Ki Cat B” value on human cathepsin B is “inactive”. For the same molecule, the Ki on human cathepsin B was above 100 µM. The “Ki SmCB1” value on SmCB1 [1] is “inactive”. Moreover, the Severity score in data set [2] (1 μM, 24 h) was determined as 0; in data set [2] (1 μM, 48 h), 0; in data set [2] (1 μM, 72 h), 0; in data set [2] (10 μM, 24 h), 0; in data set [2] (10 μM, 48 h) it was 0; in data set [2] (10 μM, 72 h) it was 0. For the same molecule, the “anti-schistosomal effect” value in [2] is “ineffective”.

The values above are taken from article PMC12538275, “Fat or flat? The impact of dipole moment vectors on non-covalent interactions between aromatic tags and macromolecules” (Inorganic Chemistry Frontiers, 2025).
